Like-named read-outs stand apart in the source and are kept apart here. A value given as a limit tells only on which side of the number the result lay.

Experiment [1] has as its target T1, PRMT5-MEP50 enzyme (Homo sapiens, UniProt O14744).
T1 construct: One virus expresses full length human PRMT5 with Flag-tag at N-terminus; Flag (N); purchased Charles River (Argenta); host or cells: insect cells (Sf9), baculovirus co-infection
The experiment is described as follows: In vitro assay 1a: high throughput mass spectrometer assay of SAH formation, 10 nM enzyme, 60 min. To be noted: averaged values, PRMT5-MEP50, 10 nM enzyme, read-out: pIC50 Assay 1a (converted). It counts as biochemical. The text has this:
Experimental Procedures In Vitro Assay (Assay 1a and 1b)
PRMT5-MEP50 enzyme was purchased from Charles River (Argenta). The enzyme complex was produced in insect cells (Sf9) infected simultaneously with two baculoviruses. One virus expresses full length human PRMT5 with Flag-tag at N-terminus, the second virus expresses full length MEP50 with His6-TEV cleavage at N-terminus. The protein was affinity purified using anti-Flag (M2) beads eluted with 3×FLAG peptide, followed by His-Select eluted with 0.5M imidazole. Eluted protein was then dialysed against tris-buffered saline (TBS) (pH 8.0) containing 20% glycerol and 3 mM dithiothreitol (DTT).
Full-length untagged human recombinant histone H2A (residues 1-130, Genbank Accession #NM_021052 MW=14.1 kDa) expressed in E. coli was purchased from Reaction Biology Corporation, Cat #HMT-11-146. Reagents used for making reaction buffer or stopping reaction were purchased including Tris base (Sigma Cat #T-1503), NaCl (Sigma Cat #RGF-3270), MgCl2 (Sigma Cat #M0250), DTTI (Invitrogen Cat #15508-013) and Formic Acid (Riedel deHaen, Cat #33015)
High Throughput Mass Spectrometer Assay
PRMT5 catalyzes the sequential methylations of the terminal nitrogen atoms on the guanidine groups of arginine residues within proteins using co-substrate S-adenosyl-L-methionine (AdoMet, SAM), forming mono-methyl (MMA), symmetric-dimethyl arginine (sDMA) and S-adenosyl-L-homocysteine (AdoHcy, SAH). The enzyme activity was determined by following the product SAH formation using high throughput mass spectrometry (Agilent Rapidfire 300 System coupled to a Sciex 4000 series QTrap® triple-quad MS/MS). The reaction buffer was 20 mM Tris-HCl, pH 8.5, 50 mM NaCl, 5 mM MgCl2 and 1 mM DTT. The reaction activity was stopped using 1% formic acid (final concentration).
The IC50 Studies were performed using eleven point dosing series made for each compound by serially diluted 1:2 in dimethyl sulfoxide (DMSO), with point 12 being a DMSO control. Compounds were first spotted to plates, and followed by addition of 2 μM SAM and 0.6 μM H2A (histone H2A) solution mixture. The same volume of enzyme solution was added to initiate the enzymatic reactions. The final concentrations of the reaction are at 1 μM SAM, 0.3 μM H2A and 10 nM enzyme (assay 1a) or 1.25 nM enzyme (assay 1b). The reaction was incubated at 30° C. for 60 minutes (min) when 10 nM enzyme was used and for 120 min when 1.25 nM enzyme was used. Subsequently, the reaction was quenched by addition of formic acid to a final concentration of 1%. The inhibitions of SAH formation in the presence of compounds were calculated as a percentage of the control relative to the uninhibited reaction as a function of inhibitor concentration. The data were fit as follows: Y=Bottom+(Top−Bottom)/(1+10^((log IC50−X)*h))
where IC50 is the inhibitor concentration (same unit as X) at 50% inhibition and h is the Hill slope. Y is percent of inhibition, X is log of compound concentration. Bottom and Top are the plateaus in same units as Y.

For experiment [2], the system named is nuclear symmetric Arginine dimethylation in A549 cells. The experiment is described as follows: PD assay (assay 2): inhibition of nuclear symmetric Arginine dimethylation (SYM10 immunohistochemistry), 48 h. To be noted: Homo sapiens. The class given is cell-based. The gist of the method: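 Cells seeded at 400/well overnight, then treated 48 h at 37 °C, final DMSO 0.2%. Fixed and stained with SYM10 antibody plus Alexa 488 secondary, Hoechst and CellMask, then imaged on Opera. Normalized to DMSO (high) and 10 μM reference compound (low); averaged pIC50 reported.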

The target in experiment [3] is T1, PRMT5-MEP50 enzyme. The experiment is described as follows: In vitro assay 1b: high throughput mass spectrometer assay of SAH formation, 1.25 nM enzyme, 120 min. It counts as biochemical. To be noted: averaged values; PRMT5-MEP50, 1.25 nM enzyme, 120 min; read-out: pIC50 Assay 1b (converted). The procedure, abridged: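 Flag-PRMT5/His-MEP50 complex from Sf9 cells, with 1 μM SAM and 0.3 μM full-length histone H2A in pH 8.5 Tris buffer, at 30 °C; 10 nM enzyme for 60 min (1a) or 1.25 nM for 120 min (1b). Formic acid-quenched SAH read by RapidFire MS/MS; 11-point IC50 with Hill fit.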

The mark [4] stands for this setting: A549, averaged values, PD assay, A549 cells, symmetric Arginine dimethylation, read-out: pIC50 Assay 2 (converted).
Where [5] appears, read: A549, read-out: pIC50 Assay 2 (converted).

T1 sequence (O14744 whole entry): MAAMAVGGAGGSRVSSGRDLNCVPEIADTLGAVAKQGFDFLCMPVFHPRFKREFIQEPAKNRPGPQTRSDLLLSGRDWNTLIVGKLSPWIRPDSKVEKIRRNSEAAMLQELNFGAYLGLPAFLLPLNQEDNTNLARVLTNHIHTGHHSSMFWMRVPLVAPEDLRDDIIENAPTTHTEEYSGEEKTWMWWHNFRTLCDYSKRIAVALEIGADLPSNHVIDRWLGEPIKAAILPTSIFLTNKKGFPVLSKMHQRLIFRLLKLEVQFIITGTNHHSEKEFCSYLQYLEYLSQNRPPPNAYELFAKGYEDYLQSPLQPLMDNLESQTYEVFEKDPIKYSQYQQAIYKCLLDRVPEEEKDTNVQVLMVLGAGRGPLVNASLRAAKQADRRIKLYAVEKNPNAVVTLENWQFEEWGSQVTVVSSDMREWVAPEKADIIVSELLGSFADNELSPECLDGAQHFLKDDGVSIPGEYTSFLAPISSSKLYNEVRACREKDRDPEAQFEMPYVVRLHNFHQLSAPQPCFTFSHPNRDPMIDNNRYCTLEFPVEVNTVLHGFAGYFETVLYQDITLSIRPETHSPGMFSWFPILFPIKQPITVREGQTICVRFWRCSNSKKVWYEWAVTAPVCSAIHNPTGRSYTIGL
T1 sequence (Q9BQA1 whole entry partner): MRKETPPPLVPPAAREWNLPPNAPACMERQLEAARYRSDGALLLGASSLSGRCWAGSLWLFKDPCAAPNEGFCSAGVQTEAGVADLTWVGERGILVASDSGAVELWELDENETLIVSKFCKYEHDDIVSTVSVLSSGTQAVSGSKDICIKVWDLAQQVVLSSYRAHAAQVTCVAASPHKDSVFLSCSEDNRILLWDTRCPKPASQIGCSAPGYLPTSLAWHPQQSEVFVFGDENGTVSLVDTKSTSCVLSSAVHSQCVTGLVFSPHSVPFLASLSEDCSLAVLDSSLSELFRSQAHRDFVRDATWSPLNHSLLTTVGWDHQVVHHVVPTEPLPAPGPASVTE

For `CNc1ccc2ccc(CC[C@H]3O[C@@H](n4ccc5c(N)ncnc54)[C@H](O)[C@@H]3O)cc2n1` [Compound 137], the IC50 in experiment [1] was 1.58 nM; in experiment [2] (setting [4]), 6.31 nM; in experiment [3], 20 nM.

`Nc1ncc2ccc(CC[C@H]3C[C@@H](n4ccc5c(N)ncnc54)[C@H](O)[C@@H]3O)cc2n1` [Compound 216]: the IC50 was 1 nM in experiment [1], 10 nM in experiment [2] (setting [4]) and 7.94 nM in experiment [3].

In the case of `CC(C)C(=O)O[C@@H]1[C@H](OC(=O)C(C)C)[C@@H](COc2ccc3cccnc3c2)O[C@H]1n1ccc2c(N)ncnc21` [Compound 89], the IC50 in experiment [1] was more than 10000 nM; in experiment [2] (setting [4]), 63.1 nM; in experiment [3], 31600 nM.

Take `Nc1ncnc2c1ccn2[C@@H]1O[C@H](COc2ccc3cc(C4CC4)cnc3c2)[C@@H](O)[C@H]1O` [Compound 84]: the figures for the IC50 in experiment [1], in experiment [2] (setting [4]) and in experiment [3] were 15.8 nM, 200 nM and 79.4 nM, respectively.

With `CNc1ccc2ccc(CC[C@H]3O[C@@H](n4ccc5cncnc54)[C@H](O)[C@@H]3O)cc2n1` [Compound 169], the IC50 in experiment [1] was 10 nM; in experiment [2] (setting [4]), 50.1 nM; in experiment [3], 63.1 nM.

In the case of `Nc1ncnc2c1ccn2[C@@H]1C[C@H](CCc2ccc3cc(Br)cnc3c2)[C@@H](O)[C@H]1O` [Compound 129], the IC50 in experiment [1] was 2.51 nM; in experiment [2] (setting [5]) it was 12.6 nM; in experiment [3], 15.8 nM.

Regarding `Nc1ncnc2c1ccn2[C@@H]1O[C@H](COc2cccc3ncccc23)[C@@H](O)[C@H]1O` [Compound 5], the IC50 in experiment [1] was 2000 nM; in experiment [2] (setting [4]), more than 10000 nM; in experiment [3], 5010 nM.

For the compound `Nc1ncnc2c1ccn2[C@@H]1O[C@H](/C=C/c2ccc3cc(Cl)cnc3c2)[C@@H](O)[C@H]1O` [Compound 57a], the IC50 in experiment [1] is 31.6 nM; in experiment [2] (setting [4]), 63.1 nM; in experiment [3] it was 50.1 nM.

Turning to `Nc1ncnc2c1ccn2[C@@H]1C[C@H](CCc2ccc3ccc(NC4CC4)nc3c2)[C@@H](O)[C@H]1O` [Compound 152], the IC50 in experiment [1] is 0.501 nM; in experiment [2] (setting [4]) it was less than 1.17 nM; in experiment [3], 3.98 nM.

As for `Nc1ncnc2c1ccn2[C@@H]1O[C@H](COc2cnc3ccccc3c2)[C@@H](O)[C@H]1O` [Compound 10], the IC50 in experiment [1] is 3160 nM; in experiment [2] (setting [4]), approximately 7080 nM; in experiment [3], 3980 nM.

Turning to `Nc1ncnc2c1ccn2[C@@H]1O[C@H](COc2cccc3cnccc23)[C@@H](O)[C@H]1O` [Compound 6], the IC50 in experiment [1] was 3160 nM; in experiment [2] (setting [4]), more than 10000 nM; in experiment [3], 5010 nM.

As to `CNC(=O)c1cnc2cc(OC[C@H]3O[C@@H](n4ccc5c(N)ncnc54)[C@H](O)[C@@H]3O)ccc2c1` [Compound 189], the IC50 is 316 nM in experiment [1], 251 nM in experiment [2] (setting [4]) and 1000 nM in experiment [3].

For `Nc1ncnc2c1ccn2[C@@H]1O[C@H](COc2ccc3cnccc3c2)[C@@H](O)[C@H]1O` [Compound 12], the results for the IC50 in experiment [1], in experiment [2] (setting [4]) and in experiment [3] were 1580 nM, more than 10000 nM and 3980 nM, respectively.

With `Nc1ncnc2c1ccn2[C@@H]1O[C@H](CCc2ccc3ccc(NCc4ccc(Cl)cc4)nc3c2)[C@@H](O)[C@H]1O` [Compound 135], the IC50 was 1 nM in experiment [1], approximately 2.82 nM in experiment [2] (setting [4]) and 6.31 nM in experiment [3].

Consider `Nc1ncnc2c1ccn2[C@@H]1C[C@H](Cc2ccc3ccncc3c2)[C@@H](O)[C@H]1O` [Compound 95], for which the IC50 in experiment [1] was 316 nM; in experiment [2] (setting [4]), more than 10000 nM; in experiment [3], 501 nM.

As for `CN(C)c1ccc2ccc(OC[C@H]3O[C@@H](n4ccc5c(N)ncnc54)[C@H](O)[C@@H]3O)cc2n1` [Compound 23], the IC50 was 501 nM in experiment [1], 398 nM in experiment [2] (setting [5]) and 316 nM in experiment [3].

For `O[C@@H]1[C@H](O)[C@@H](CCc2ccc3ccc(NCc4ccc(Cl)cc4)nc3c2)O[C@H]1n1ccc2c(Cl)ncnc21` [Compound 127], the figures for the IC50 in experiment [1], in experiment [2] (setting [4]) and in experiment [3] were 12.6 nM, 126 nM and 100 nM, respectively.

For the compound `Nc1ncnc2c1ccn2[C@@H]1O[C@H](COc2ccc3ccc(O)nc3c2)[C@@H](O)[C@H]1O` [Compound 18], the figures for the IC50 in experiment [1], in experiment [2] (setting [4]) and in experiment [3] were 79.4 nM, approximately 10000 nM and 316 nM, respectively.

On to `Nc1ncnc2c1ccn2[C@@H]1O[C@H](COc2ccc3ccc(NCC4CC4)nc3c2)[C@@H](O)[C@H]1O` [Compound 142], for which the IC50 in experiment [1] is 1.26 nM; in experiment [2] (setting [4]) it was 15.8 nM; in experiment [3], 7.94 nM.

For the compound `O[C@@H]1[C@@H](CCc2ccc3ccc(NCC4CC4)nc3c2)C[C@@H](n2ccc3cncnc32)[C@@H]1O` [Compound 166], the IC50 in experiment [1] was 1 nM; in experiment [2] (setting [4]), 1 nM; in experiment [3], 5.01 nM.

As to `Nc1ncnc2c1ccn2[C@@H]1C[C@H](CCc2ccc3cnc(NC4CC4)nc3c2)[C@@H](O)[C@H]1O` [Compound 145], the IC50 is 15.8 nM in experiment [1], 79.4 nM in experiment [2] (setting [4]) and 79.4 nM in experiment [3].

As for `O[C@@H]1[C@@H](CCc2ccc3ccc(NCc4ccc(Cl)cc4)nc3c2)C[C@@H](n2ccc3c(Cl)ncnc32)[C@@H]1O` [Compound 114], the IC50 in experiment [1] was 15.8 nM; in experiment [2] (setting [4]) it was 12.6 nM; in experiment [3], 25.1 nM.

Take `Nc1ncnc2c1ccn2[C@@H]1C[C@H](CCc2ccc3ccc(NC4CCCC4)nc3c2)[C@@H](O)[C@H]1O` [Compound 146]: the values for the IC50 in experiment [1], in experiment [2] (setting [4]) and in experiment [3] were 0.251 nM, less than 1.17 nM and 2.51 nM, respectively.

Consider `COC(=O)c1cnc2cc(OC[C@H]3O[C@@H](n4ccc5c(N)ncnc54)[C@H](O)[C@@H]3O)ccc2c1` [Compound 105], for which the IC50 in experiment [1] was 158 nM; in experiment [2] (setting [4]), 2510 nM; in experiment [3] it was 1000 nM.

Turning to `Nc1ncnc2c1ccn2[C@@H]1C[C@H](CNc2ccc3cc(Br)cnc3c2)[C@@H](O)[C@H]1O` [Compound 54], the IC50 was 15.8 nM in experiment [1], 31.6 nM in experiment [2] (setting [4]) and 15.8 nM in experiment [3].

Consider `COc1cc2c(Cl)ccnc2cc1OC[C@H]1O[C@@H](n2ccc3c(N)ncnc32)[C@H](O)[C@@H]1O` [Compound 36], for which the IC50 in experiment [1] was 7940 nM; in experiment [2] (setting [4]) it was more than 20000 nM.

Consider `CNc1ncnc2c1ccn2[C@@H]1C[C@H](CCc2ccc3ccc(N)nc3c2)[C@@H](O)[C@H]1O` [Compound 78], for which the IC50 in experiment [1] was 1.26 nM; in experiment [2] (setting [5]), 0.316 nM.

As to `Nc1ncnc2c1c(Br)cn2[C@@H]1O[C@H](COc2ccc3cccnc3c2)[C@@H](O)[C@H]1O` [Compound 45], the IC50 in experiment [1] was 251 nM; in experiment [2] (setting [4]), 631 nM.

As to `CNC(=O)c1ccc2ccc(OC[C@H]3O[C@@H](n4ccc5c(N)ncnc54)[C@H](O)[C@@H]3O)cc2n1` [Compound 246], the IC50 in experiment [1] was 3160 nM; in experiment [2] (setting [4]) it was more than 20000 nM.

Take `Nc1nc2cc(CC[C@H]3C[C@@H](n4ccc5c(N)ncnc54)[C@H](O)[C@@H]3O)ccc2cc1Cl` [Compound 81]: the results for the IC50 in experiment [1] and in experiment [2] (setting [4]) were 0.251 nM and 0.2 nM, respectively.

The values above are taken from patent US11318157B2, “6-6 bicyclic aromatic ring substituted nucleoside analogues for use as PRMT5 inhibitors” (Janssen Pharmaceutica NV, priority 2015, dated 2022).
